Test results as given in US9017725B2, “Topical drug delivery systems for ophthalmic use” (Aurinia Pharmaceuticals Inc., priority 2009, dated 2015).
In brackets after ≈: the same amount, converted by molar mass.

Assay: Aqueous solubility and solubility in mixed nanomicellar formulation
Assay type: physicochemical
Conditions: for solubility: mixed nanomicellar formulation, aqueous with cosolvent or surfactant or cyclodextrin
Description: The ethanolic solution was evaporated under vacuum to get a thin film near-solid matter. Deionized water, 25 mL, was added to the thin film near-solid matter and sonicated for approximately 20 min to ensure complete formation of mixed micelles. The prepared 2× formulation was stored at room temperature.

Row | improvement of solubility (mixed nanomicellar formulation versus aqueous solubility) | solubility | improvement of solubility (mixed nanomicellar formulation (4 mg/mL) versus aqueous solubility) | Compound
1 | about 6.2 fold | 1000 µg/mL (≈ 2.55 mM) |  | C[C@@H]1C[C@H]2[C@@H]3CCC4=CC(=O)C=C[C@]4(C)[C@@]3(F)[C@@H](O)C[C@]2(C)[C@@]1(O)C(=O)CO [dexamethasone]
2 |  | 4000 µg/mL (≈ 4.38 mM) | up to 2000 fold | CO[C@H]1C[C@@H]2CC[C@@H](C)[C@@](O)(O2)C(=O)C(=O)N2CCCC[C@H]2C(=O)O[C@H]([C@H](C)C[C@@H]2CC[C@@H](O)[C@H](OC)C2)CC(=O)[C@H](C)/C=C(\C)[C@@H](O)[C@@H](OC)C(=O)[C@H](C)C[C@H](C)/C=C/C=C/C=C/1C [rapamycin]
